In ChEMBL document CHEMBL6092200, “Structure-guided inhibitor design targeting CntL provides the first chemical validation of the staphylopine metallophore system in bacterial metal acquisition” (Eur J Med Chem, 2024):
Calls of active or inactive are those of the source. The calls are words filed in the database; no cut-off is given here.

What was measured:
[1] = target: T1, D-histidine 2-aminobutanoyltransferase (Staphylococcus aureus (strain Mu50 / ATCC 700699)) (UniProt A0A0H3JXA8); assay: Inhibition of N-terminal his6-tagged Staphylococcus aureus ATCC 700699 CntL at 5 uM using SAM as substrate preincubated with compound for 10 mins followed by substrate addition and measured after 25 mins in presence of NADPH by microplate reader analysis relative to control; conditions: time 35.0 min
T1 sequence (whole entry): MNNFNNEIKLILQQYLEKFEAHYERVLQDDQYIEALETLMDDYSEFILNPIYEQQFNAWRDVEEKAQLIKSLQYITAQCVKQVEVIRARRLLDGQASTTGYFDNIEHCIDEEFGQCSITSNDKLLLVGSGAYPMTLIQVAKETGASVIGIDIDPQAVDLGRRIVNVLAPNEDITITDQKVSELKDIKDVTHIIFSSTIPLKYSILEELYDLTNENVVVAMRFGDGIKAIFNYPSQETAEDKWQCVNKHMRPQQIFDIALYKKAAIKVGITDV

[2] = target: T1, D-histidine 2-aminobutanoyltransferase (Staphylococcus aureus (strain Mu50 / ATCC 700699)); assay: Induction of thermal stabilization of Staphylococcus aureus ATCC 700699 CntL assessed as change in melting temperature at 100 uM by fluorescence-based thermal shift assay
[3] = target: T2, L-histidine 2-aminobutanoyltransferase (Pseudomonas aeruginosa) (UniProt Q9HUX4); assay: Induction of thermal stabilization of N-terminal his6-tagged Pseudomonas aeruginosa CntL assessed as increase in melting temperature at 500 uM by fluorescence-based thermal shift assay
T2 sequence (whole entry): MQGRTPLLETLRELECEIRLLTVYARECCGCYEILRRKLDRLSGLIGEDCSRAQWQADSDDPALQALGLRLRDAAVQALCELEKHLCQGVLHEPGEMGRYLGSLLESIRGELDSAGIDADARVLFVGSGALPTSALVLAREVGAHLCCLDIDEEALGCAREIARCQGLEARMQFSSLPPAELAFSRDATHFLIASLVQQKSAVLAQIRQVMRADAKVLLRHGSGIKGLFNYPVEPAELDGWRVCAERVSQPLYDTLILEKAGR

[4] = target: T1, D-histidine 2-aminobutanoyltransferase (Staphylococcus aureus (strain Mu50 / ATCC 700699)); assay: Induction of thermal stabilization of Staphylococcus aureus ATCC 700699 CntL assessed as change in melting temperature by fluorescence-based thermal shift assay
[5] = target: T1, D-histidine 2-aminobutanoyltransferase (Staphylococcus aureus (strain Mu50 / ATCC 700699)); assay: Inhibition of N-terminal his6-tagged Staphylococcus aureus ATCC 700699 CntL assessed as reduction in intracellular nickel ion level at 100 uM by ICP-MS analysis; type: cell-based
[6] = target: T1, D-histidine 2-aminobutanoyltransferase (Staphylococcus aureus (strain Mu50 / ATCC 700699)); assay: Inhibition of N-terminal his6-tagged Staphylococcus aureus ATCC 700699 CntL assessed as reduction in intracellular iron level at 100 uM by ICP-MS analysis; type: cell-based
[7] = target: T3, D-histidine 2-aminobutanoyltransferase (Staphylococcus aureus (strain Mu50 / ATCC 700699), UniProt A0A0H3JXA8); assay: Binding affinity to N-terminal his6-tagged Staphylococcus aureus ATCC 700699 CntL assessed as dissociation constant by ITC analysis
T3 sequence (A0A0H3JXA8 whole entry): T1 sequence (whole entry)

[8] = target: T1, D-histidine 2-aminobutanoyltransferase (Staphylococcus aureus (strain Mu50 / ATCC 700699)); assay: Binding affinity to N-terminal his6-tagged Staphylococcus aureus ATCC 700699 CntL assessed as change in entropy by ITC analysis
[9] = tested on: Staphylococcus aureus; assay: Antibacterial activity against Staphylococcus aureus […] assessed as effect on bacterial growth at 100 uM incubated for 12 hrs in presence of chemically defined medium; type: functional, organism-based
[10] = target: T1, D-histidine 2-aminobutanoyltransferase (Staphylococcus aureus (strain Mu50 / ATCC 700699)); assay: Binding affinity to N-terminal his6-tagged Staphylococcus aureus ATCC 700699 CntL assessed as gibbs free energy change by ITC analysis
[11] = target: T3, D-histidine 2-aminobutanoyltransferase; assay: Inhibition of N-terminal his6-tagged Staphylococcus aureus ATCC 700699 CntL using SAM as substrate preincubated with compound for 10 mins followed by substrate addition and measured after 25 mins in presence of NADPH by microplate reader analysis
[12] = target: T1, D-histidine 2-aminobutanoyltransferase (Staphylococcus aureus (strain Mu50 / ATCC 700699)); assay: Binding affinity to N-terminal his6-tagged Staphylococcus aureus ATCC 700699 CntL assessed as change in enthalpy by ITC analysis
[13] = target: T1, D-histidine 2-aminobutanoyltransferase (Staphylococcus aureus (strain Mu50 / ATCC 700699)); assay: Inhibition of N-terminal his6-tagged Staphylococcus aureus ATCC 700699 CntL assessed as reduction in intracellular cobalt ion level at 100 uM by ICP-MS analysis; type: cell-based
[14] = tested on: Staphylococcus aureus; assay: Antibacterial activity against Staphylococcus aureus […] assessed as effect on bacterial growth at 100 uM incubated for 12 hrs in presence of LB medium; type: functional, organism-based
[15] = tested on: Staphylococcus aureus; assay: Antibacterial activity against Staphylococcus aureus […] assessed as effect on bacterial growth at 100 uM incubated for 12 hrs in presence of dCDM medium; type: functional, organism-based
[16] = target: T2, L-histidine 2-aminobutanoyltransferase (Pseudomonas aeruginosa); assay: Binding affinity to N-terminal his6-tagged Pseudomonas aeruginosa CntL assessed as change in gibbs free energy by ITC analysis
[17] = target: T2, L-histidine 2-aminobutanoyltransferase (Pseudomonas aeruginosa); assay: Binding affinity to N-terminal his6-tagged Pseudomonas aeruginosa CntL assessed as change in entropy by ITC analysis
[18] = target: T4, L-histidine 2-aminobutanoyltransferase (Pseudomonas aeruginosa, UniProt Q9HUX4); assay: Binding affinity to N-terminal his6-tagged Pseudomonas aeruginosa CntL assessed as dissociation constant by ITC analysis
T4 sequence (Q9HUX4 whole entry): T2 sequence (whole entry)

[19] = target: T2, L-histidine 2-aminobutanoyltransferase (Pseudomonas aeruginosa); assay: Binding affinity to N-terminal his6-tagged Pseudomonas aeruginosa CntL assessed as change in enthalpy by ITC analysis
[20] = target: T1, D-histidine 2-aminobutanoyltransferase (Staphylococcus aureus (strain Mu50 / ATCC 700699)); assay: Induction of thermal stabilization of Staphylococcus aureus ATCC 700699 CntL assessed as melting temperature in presence of L-His by fluorescence-based thermal shift assay
[21] = target: T1, D-histidine 2-aminobutanoyltransferase (Staphylococcus aureus (strain Mu50 / ATCC 700699)); assay: Induction of thermal stabilization of Staphylococcus aureus ATCC 700699 CntL assessed as melting temperature by fluorescence-based thermal shift assay
[22] = target: T1, D-histidine 2-aminobutanoyltransferase (Staphylococcus aureus (strain Mu50 / ATCC 700699)); assay: Induction of thermal stabilization of Staphylococcus aureus ATCC 700699 CntL assessed as melting temperature in presence of xNA by fluorescence-based thermal shift assay
[23] = target: T1, D-histidine 2-aminobutanoyltransferase (Staphylococcus aureus (strain Mu50 / ATCC 700699)); assay: Induction of thermal stabilization of Staphylococcus aureus ATCC 700699 CntL assessed as change in melting temperature in presence of histidine by fluorescence-based thermal shift assay
[24] = target: T1, D-histidine 2-aminobutanoyltransferase (Staphylococcus aureus (strain Mu50 / ATCC 700699)); assay: Induction of thermal stabilization of Staphylococcus aureus ATCC 700699 CntL assessed as melting temperature in presence of D-His by fluorescence-based thermal shift assay

Structure (SMILES)	inhibition [1] [%]	ΔTm [2] [°C]	Activity [3]	ΔTm [4] [°C]	Kd [7] [nM]	-TdeltaS [8] [kcal/mol]	deltaG [10] [kcal/mol]	IC50 [11] [nM]	deltaH [12] [kcal/mol]	deltaG [16] [kcal/mol]	-TdeltaS [17] [kcal/mol]	Kd [18] [nM]	deltaH [19] [kcal/mol]	also measured
Nc1ncnc2c1ncn2[C@@H]1O[C@H](CSCCC(=O)N[C@@H](Cc2c[nH]cn2)C(=O)O)[C@@H](O)[C@H]1O	< 20	1.7	–	–	–	–	–	–	–	–	–	–	–	–
Nc1nc(Cl)nc2c1ncn2[C@@H]1O[C@H](CSCCCNC(Cc2c[nH]cn2)C(=O)O)[C@@H](O)[C@H]1O (single isomer, unassigned)	–	–	Active	8.4	–	–	–	–	–	–	–	–	–	–
COc1nc(N)c2ncn([C@@H]3O[C@H](CSCCCN[C@@H](Cc4c[nH]cn4)C(=O)O)[C@@H](O)[C@H]3O)c2n1	–	–	–	4.7	–	–	–	–	–	–	–	–	–	–
Nc1ncnc2c1ncn2[C@@H]1O[C@H](CSCCCNC(=O)[C@H](N)Cc2c[nH]cn2)[C@@H](O)[C@H]1O	< 20	0.7	–	–	–	–	–	–	–	–	–	–	–	–
Nc1nc(Cl)nc2c1ncn2[C@@H]1O[C@H](CSCCN[C@@H](Cc2c[nH]cn2)C(=O)O)[C@@H](O)[C@H]1O	–	–	Active	9.4	21	0.448	-10.5	~60	-10.9	–	–	–	–	inhibition [5]: Active; inhibition [6]: Active; Activity [9]: inactive; inhibition [13]: Active; Activity [14]: inactive; Activity [15]: inactive
Nc1ncnc2c1ncn2[C@@H]1O[C@H](CSCCCN[C@@H](Cc2c[nH]cn2)C(=O)O)[C@@H](O)[C@H]1O	96	7.7	Active	0.7	180	9.07	-9.2	120	-18.3	-8.48	0.149	600	-8.65	–
CSC[C@H]1O[C@@H](n2cnc3c(N)ncnc32)[C@H](O)[C@@H]1O [METHYLTHIOADENOSINE]	–	–	–	–	10900	16.4	-6.84	–	-23.3	-6.55	0.078	15500	-6.63	Tm [20]: 59 °C; Tm [21]: 56.3 °C; Tm [22]: 59.3 °C; ΔTm [23]: 3.4 °C; Tm [24]: 59 °C
Nc1ncnc2c1ncn2[C@@H]1O[C@H](CSCCN[C@@H](Cc2c[nH]cn2)C(=O)O)[C@@H](O)[C@H]1O	92	8.4	Active	1	41	7.72	-10.1	60	-17.8	-9.1	-4.84	220	-4.25	–
